melting point [°C] | Structure (SMILES)
218 | CCCc1nc(SC)nc(O)c1Cc1ccc(-c2ccccc2C#N)cc1
136 | Cc1cc(-n2cncn2)c2cccc(OCc3c(Cl)ccc(S(=O)(=O)N4CCC[C@H]4C(=O)NCC4CCN(CCCO)CC4)c3Cl)c2n1
126 to 127 | CCc1ccc(C(C)(C)C)c(O)c1C(=O)Nc1ccc(S(=O)(=O)C(F)(F)F)cc1Cl
152 to 154 | O=C(O)CCc1cc(Cl)cc2nc(-c3ccccc3Cl)oc12
162 to 163 | CC(=O)c1ccc(OCC(O)COc2ccc(C#N)cc2)cc1O (configuration not stated)
147 to 150 | O=C(NC1=NCCC1)Nc1ccc(Cl)cc1
138 to 140 | COc1ccc(S(=O)(=O)N2C(=O)[C@@](c3ccccc3OC)(N3C[C@H](OC(=O)N(C)C)C[C@H]3C(=O)N(C)C)c3cc(Cl)ccc32)c(OC)c1
214 to 218 | Cc1ccc(N2C(=O)C(O)=C(C(=O)c3ccc(C(C)C)cc3)C2c2ccc(OC(F)(F)F)cc2)cn1 (configuration not stated)
235 to 240 | Cn1cc(O)c(=O)c2ccccc21
152 | COc1cc(C)c(C(=O)c2c(Cl)cccc2Cl)cc1OCC1CC1
89 to 93 | COc1cc(OCc2ccccn2)ccc1/C=C/c1cc(/C=C/c2ccc3ccn(Cc4ccccc4)c3c2)n[nH]1
240 to 242 | O=C(CCn1cnc2c(=O)[nH]cnc21)NC(Cc1ccccc1)C(=O)O (configuration not stated)
68 to 69 | COc1ccccc1-c1cccc([N+](=O)[O-])c1
192 to 195 | O=C(Nc1ccc(C(=O)N2CCc3sc(Cc4c[nH]cn4)nc3-c3ccccc32)cc1)c1ccccc1-c1ccccc1
126 to 128 | O=C(Nc1ccc(-n2nc(C(F)(F)F)cc2C(F)(F)F)cc1)c1ccc(F)cc1F
227 to 229 | Cc1cc(C(=O)c2[nH]c3cc(Cl)ccc3c2CC(=O)O)no1
118 to 120 | CCCSc1ncc(CC(C(=O)O)C(=O)OCC)n1Cc1ccccc1Cl (configuration not stated)
120 to 125 | NC(=O)C(CCc1ccccc1)NC(=O)c1ccc2[nH]c(-c3ccccc3)c(-c3ccccc3)c2c1 (configuration not stated)
105 to 106 | O=C(O)Cc1ccc(O)c(Cl)c1Cl
188 | Cc1nn(CCc2ccccc2)cc1C(=O)Nc1ccc(N2CCC(N3CCOCC3)CC2)c(C#N)c1
199 to 201 | COCc1cnc2c(NC(=O)c3c(Cl)cccc3Cl)cccc2c1N1CCN(C)C1=O
213 to 215 | Nc1ccc(Oc2cc(C34CCCCC3C(=O)NC4=O)c(F)cc2Cl)cc1 (configuration not stated)
> 280 | CCn1c(=O)c2[nH]c(/C=C/c3ccc(C(F)(F)F)cc3)nc2n(CC)c1=O
257 to 259 | C#Cc1cccc(N2C(=O)c3ccc([N+](=O)[O-])cc3C2=O)c1
140 | COc1ccc(OCc2cccc(C(=O)O)c2)cc1Cc1cnc(N)nc1N
150 to 155 | CC(C)(CC(O)(Cn1ccc(=O)c2ccccc21)C(F)(F)F)c1cc(F)ccc1OC(F)F (configuration not stated)
83 to 84 | Cn1c(CO)ncc(OCc2ccccc2)c1=O

melting point [°C] | Structure (SMILES)
162 to 163 | COC(=O)c1cccc(Nc2nccc(-c3ccnc(NCCCO)c3)n2)c1
188 to 189 | CC(=O)N(C)c1ccccc1CS(=O)c1nccn1-c1ccccn1 (configuration not stated)
225 to 228 | CCn1c2ccccc2c2c3c(c(-c4ccccc4Cl)cc21)C(=O)NC3O (configuration not stated)
102 to 103 | COc1cc(CCCO)c(Br)cc1OCc1ccc(Cl)cc1Cl
153 to 154 | Cc1nccn1-c1ccc(COc2cccc(C3(C#N)CCOCC3)c2)cc1
183 to 185 | CN1CCN(CC(=O)N2c3ccccc3N(C)C(=O)c3cncnc32)CC1
189 to 190 | COc1cc2c(c(Cl)c1Cl)C(=O)C(C)(C)C2(C)c1ccccc1 (configuration not stated)
146 to 149 | C=CCC12CC(=O)N(C)C1(O)CCc1ccc(OC)cc12 (configuration not stated)
172 to 174 | NC(=O)c1cc(CN2C(=O)C3(COc4cc5c(cc43)OCO5)c3ccccc32)oc1C(F)(F)F (configuration not stated)
190 to 193 | CC(=O)OCC1CCc2c(C3=C(c4cn(C)c5ccccc45)C(=O)OC3=O)c3ccccc3n2C1 (configuration not stated)
151 to 152 | Cn1nc(-c2ccc(Cl)cc2)c2ccccc2c1=O
223 to 225 | CC(=O)c1ccc(-n2c(-c3sc(Nc4ccccc4)nc3-c3ccccc3)nc3ccccc3c2=O)cc1
211 to 213 | COc1cccc(OC)c1C(=O)Nc1nnc(-c2ccc(NC(C)=O)cc2)s1
134 to 135 | COc1cccc(NC(=N)Nc2cccc(OC)c2)c1
224 to 225 | O=C(O)c1cccc(-c2ccc(F)c3cc(Cc4ccc(F)c(F)c4)sc23)c1
102 to 104 | CCc1onc(-c2ccccc2)c1C(=O)NCCCN1CCN(c2ccccc2OCC(F)(F)F)CC1
82 to 85 | CC1(O)CC(=O)OC(CCc2ccc(OCc3ccccc3)cc2)C1 (configuration not stated)
244 | CC(C)n1nc(-c2cnc(N)nc2-c2c(F)cccc2F)ccc1=O
101 to 102 | Cc1sc(-c2ccccc2)nc1COc1ccc(COc2ncccc2C=O)cc1
141 to 143 | CCOC(=O)c1c(O)c2cc(Cl)ccc2n(C)c1=O
227 | Cn1c(=O)n(Cc2ccccc2)c(=O)c2cc(C(=O)O)ccc21
179 to 180 | CC(c1ccc(-c2ccccc2)c(F)c1)c1csc(NC(=O)C(N)=O)n1 (configuration not stated)
62 to 64 | COc1ccc2ccc(C(=O)NC(C)C)c(OC(C)C)c2c1
> 300 | N#Cc1ccc(-c2nccc3[nH]c(=O)ccc23)cc1
109 to 111 | CCc1c(-c2ccc(OC)cc2)c2ccc3cc(OC)cc1n32
110 to 112 | CN(Cc1ccccc1)[C@H](Cc1c[nH]c2ccccc12)c1nc(-c2ccccc2)c[nH]1
208 to 210 | COc1ccc2c(c1)c(CC(=O)N(O)C1CCCCC1)c(C)n2C(=O)c1ccc(Cl)cc1

The remaining lines, values behind:

Structure (SMILES) | melting point [°C]
Cc1nc(-c2ncn3c2[C@@H]2CCCN2C(=O)c2c(Cl)cccc2-3)n(C)n1 | 221 to 222
O=C1Nc2c(cc([N+](=O)[O-])cc2[N+](=O)[O-])C1c1ncnc2c1cnn2C1CCCC1 (configuration not stated) | 242 to 246
O=C1CCC2(c3c[nH]cn3)Cc3ccccc3C12 (configuration not stated) | 234 to 236
CCN(C)C(=S)Nc1cc(Cl)c(OCCC[Si](C)(C)C)cc1C | 71 to 72
CC(CS(=O)(=O)c1ccccc1)C1CCC2C3CC=C4CC(O)CCC4(C)C3CCC12C (configuration not stated) | 158 to 161
CCCOc1c(C(=O)OCC)oc2ccc([N+](=O)[O-])cc12 | 107
CCCCCCCCCCCCCCCC(=O)OCC1OC(N2CNC(N)=NC2=O)CC1O (configuration not stated) | 123 to 124
N#CC(=CNC1CC1)C(=O)c1cc(F)c(Cl)cc1Cl | 94 to 95
CC1(Br)C(Br)=C(Br)C(Br)=C1Br | 60 to 61
CC(=O)Oc1cc(Cl)ccc1C(=O)NCCO[N+](=O)[O-] | 75 to 77
CCOC(=O)c1cc2cc(C)c(C)cc2[nH]1 | 164
CCC(CC)(C(=O)N(C)C)n1cc(C)c(-c2ccccc2)n1 | 135 to 136
CCN(CC)C(=S)Oc1cc(Br)cc(Br)c1 | 72 to 74
CCON1CCC(C#N)(NC(=O)Cc2c(C)cc(C)cc2C)CC1 | 194 to 195
Brc1ccc2oc(Cc3cccs3)cc2c1 | 84 to 86
CS(=O)CC(=O)c1ccc(F)cc1 (configuration not stated) | 94.5 to 96
CSC(=NCCSCc1[nH]cnc1C)NC#N | 148 to 150
CSc1ccc(CSc2nnc(-c3ccc4ncsc4c3)o2)cc1C(F)(F)F | 122 to 123
CCCCCC(O)C1C(=O)NC(C(=O)SCC(=O)OC)(C(O)C2C=CCCC2)C1(C)O (configuration not stated) | 75
COc1ccc(N(C)c2nc(C)nc3oc(C)cc23)cc1 | 108 to 109
ON=C1c2cc(Cl)ccc2-n2cccc21 | 211
CC(C)(SCCCCCCNS(=O)(=O)c1ccc(Cl)cc1)C(=O)O | 93 to 94
CCCCCCCCCCCCCCCCNC(=O)CC#N | 95.5 to 96.5
Oc1ccc(Cl)cc1C(c1cc(Cl)ccc1O)C(F)(F)F | 144

Structure (SMILES) | melting point [°C]
C1=C(c2cccs2)CCN(CCCCc2c[nH]c3cc4c(cc23)OCO4)C1 | 86
CNC(=O)N(O)Cc1cc2ccccc2s1 | 160 to 161
COc1cccc2c1CCC1C(C)=C(O[Si](C)(C)C)CCC21C (configuration not stated) | 79
S=C(N1CCOCC1)C1(c2ccccn2)CCCS1 (configuration not stated) | 139
CCCCCCOc1ccc(S(=O)(=O)N(CC(=O)NO)CC(C)C)cc1 | 108 to 110
CC(C)(S)CN1CCN(CCOCCO)CC1 | 38
CC(C)(C)NC(=O)C1CCC2C3CNC4=CC(=O)CCC4(C)C3CCC12C (configuration not stated) | 186 to 189
CC(=O)CCC1CCC2C(C=CC3=CCCc4c3n2c2ccncc42)C1 (configuration not stated) | 102
Cc1c(CCC(=O)O)oc2cccc(O)c12 | 114 to 117
CSc1cc(C(F)(F)F)ccc1C(=O)O | 178 to 179
Cc1ccc(OCC(O)CCCl)cc1 (configuration not stated) | 62 to 64
N#CCCSN1C(=O)CCC1=O | 110 to 112
Cc1ccc(Cl)cc1-n1c(CF)nc2ccc(N)cc2c1=O | 214 to 216
CC(=O)C(=C1SCCCN1C(C)=O)[N+](=O)[O-] | 73.5 to 76
CCOC(=O)c1ccccc1-n1nnnc1C | 98 to 100
CN1CCCC1=C(C#N)c1ccc(N)cc1 | 116 to 118
CON=C(C(=O)O)C(=O)CBr | 76 to 78
NNC(=O)c1cccc(-c2csc(N=C(N)N)n2)n1 | 233 to 234
CS(=O)(=O)Nc1cc([N+](=O)[O-])ccc1OC1CCCCC1 | 105 to 106
COc1ccc(C(C)=O)cc1C12CC3CC(CC(C3)C1)C2 | 138 to 140
C=C(C)C(=O)NCC(=O)O | 104
C=CCc1cc(C(=O)OC(C)C)ccc1O | 79 to 80
CC(C)(C)OC(=O)NCC1CCN(CC2(C(=O)O)CCCC2)CC1 | 150
CCOC(=O)Oc1ccc(OC)c(N)c1 | 150 to 151
